Assay results from patent US20070179120A1, “HYDROXYL COMPOUNDS AND COMPOSITIONS FOR CHOLESTEROL MANAGEMENT AND RELATED USES” (ESPERION THERAPEUTICS, INC., priority 2003, published 2007).
Like-named read-outs stand apart in the source and are kept apart here.

Experiments:
primary rat hepatocytes = experiment: Inhibition of lipid synthesis ([1-14C]-acetate incorporation) in primary rat hepatocytes; format: cell-based; conditions: Hepatocyte, 4 hours incubation, 0-300 μM
Procedure: Compounds were tested for inhibition of lipid synthesis in primary cultures of rat hepatocytes. Male Sprague-Dawley rats were anesthetized with intraperitoneal injection of sodium pentobarbital (80 mg/kg). Rat hepatocytes were isolated essentially as described by the method of Seglen (Seglen, P. O. Hepatocyte suspensions and cultures as tools in experimental carcinogenesis. J. Toxicol. Environ. Health 1979, 5, 551-560). Hepatocytes were suspended in Dulbecco's Modified Eagles Medium containing 25 mM D-glucose, 14 mM HEPES, 5 mM L-glutamine, 5 mM leucine, 5 mM alanine, 10 mM lactate, 1 mM pyruvate, 0.2% bovine serum albumin, 17.4 mM non-essential amino acids, 20% fetal bovine serum, 100 nM insulin and 20 μg/mL gentamycin) and plated at a density of 1.5×10^5 cells/cm^2 on collagen-coated 96-well plates. Four hours after plating, media was replaced with the same media without serum. Cells were grown overnight to allow formation of monolayer cultures. Lipid synthesis incubation conditions were initially assessed to ensure the linearity of [1-^14C]-acetate incorporation into hepatocyte lipids for up to 4 hours. Hepatocyte lipid synthesis inhibitory activity was assessed during incubations in the presence of 0.25 μCi [1-^14C]-acetate/well (final radiospecific activity in assay is 1 Ci/mol) and 0, 1, 3, 10, 30, 100 or 300 μM of compounds for 4 hours. At the end of the 4-hour incubation period, medium was discarded and cells were washed twice with ice-cold phosphate buffered saline and stored frozen prior to analysis. To determine total lipid synthesis, 170 μl of MicroScint-E® and 50 μl water was added to each well to extract and partition the lipid soluble products to the upper organic phase containing the scintillant. Lipid radioactivity was assessed by scintillation spectroscopy in a Packard TopCount NXT.

obese female Zucker rats = experiment: Oral daily treatment of obese female Zucker rats for fourteen days: serum lipids, glycemic control indicators, body weight; format: in vivo, rat; conditions: for change in vivo at 100 mg/kg/day / change in vivo at 100 mg/kg: Rattus norvegicus, 336 h; for change in vivo at 100 mg/kg/day: 100 mg/kg/day oral gavage, read-out: % wt. gain; for change in vivo at 100 mg/kg / HDL-C/non-HDL-C: 100 mg/kg/day oral; for HDL-C/non-HDL-C: serum ratio
Procedure: In a number of different experiments, illustrative compounds of the invention are administered daily at a dose of up to 100 mg/kg to chow fed obese female Zucker rats for fourteen days in the morning by oral gavage in 1.5% carboxymethylcellulose/0.2% Tween 20 or 20% ethanol/80% polyethylene glycol (dosing vehicles). Animals are weighed daily. Animals are allowed free access to rodent chow and water throughout the study except on days of blood sampling where food is restricted for six hours prior to blood sampling. Blood glucose is determined after the 6 hour fast in the afternoon without anesthesia from a tail vein. Serum is also prepared from pretreatment blood samples subsequently obtained from the orbital venous plexus (with O2/CO2 anesthesia) and following the fourteenth dose at sacrifice from the heart following O2/CO2 anesthesia. Serums are assayed for lipoprotein cholesterol profiles, triglycerides, total cholesterol, Non-HDL cholesterol, HDL cholesterol, the ratio of HDL cholesterol to that of Non-HDL cholesterol, insulin, non-esterified fatty acids, and beta-hydroxy butyric acid. The percent body weight gain and the ratio of liver to body weight is also determined. These are shown as absolute values or as a percent change of the pretreatment values in Table 1 for compounds A-K and in Table 2 for compounds L-M. [drawing 111]

female Syrian hamsters = experiment: Chow-fed female Syrian hamsters, 3 weeks of oral dosing: lipoprotein cholesterol, triglycerides, glucose, insulin, body weight, bile acids; format: in vivo; conditions: chow-fed hamster, 100 mg/kg/day oral, 3 weeks of dosing
Procedure: Ten week old female Syrian hamsters were acclimated for 21 days to a shortened light and dark cycle (10 hours of light/14 hours of darkness). During the acclimation and drug intervention period animals were allowed free access to rodent chow (Purina 5001) and water except for a 6 hour period prior to blood sampling. Following the 21 day acclimation period ESP 55015 was administered daily for three weeks, between 8 10 AM, at a dose of 100 mg/Kg by oral gavage in a dosing vehicle consisting of 20% Ethanol/80% Polyethylene glycol 200 [v/v]. Prior to and in the afternoon following the 13th and 21st doses blood samples were collected, between 2 PM and 4 PM, by administering O2/CO2 anesthesia and bleeding from the orbital venous plexus. All blood samples were processed for separation of serum. Serum samples were subsequently assayed for total cholesterol, total cholesterol lipoprotein profiles (HDL cholesterol, LDL cholesterol and VLDL cholesterol), the ratio of HDL cholesterol, LDL cholesterol and VLDL cholesterol), the ratio of HDL cholesterol to non HDL cholesterol (LDL C, VLDL C) and triglycerides (Table 4). Percent body weight gain and ratio of liver weight to body weight were also determined.

[1] = blood glucose after 6 hour fast, read-out: Glucose (Percent of Pre-treatment)
[2] = serum beta-hydroxy butyric acid, read-out: BHA (Percent of Pre-treatment)
[3] = serum non-esterified fatty acids, read-out: NEFA (Percent of Pre-treatment)
[4] = serum total cholesterol, read-out: TC (Percent of Pre-treatment)
[5] = serum triglycerides, read-out: TG (Percent of Pre-treatment)
[6] = serum, read-out: HDL-C (Percent of Pre-treatment)
[7] = serum, read-out: Insulin (Percent of Pre-treatment)
[8] = serum, read-out: Non-HDL-C (Percent of Pre-treatment)

melting point [°C]	SMILES	IC50 (primary rat hepatocytes) [µM]	change in vivo at 100 mg/kg/day (obese female Zucker rats) [%]	change in vivo at 100 mg/kg (obese female Zucker rats; [1]) [%]	change in vivo at 100 mg/kg (obese female Zucker rats; [2]) [%]	change in vivo at 100 mg/kg (obese female Zucker rats; [3]) [%]	change in vivo at 100 mg/kg (obese female Zucker rats; [4]) [%]	change in vivo at 100 mg/kg (obese female Zucker rats; [5]) [%]	change in vivo at 100 mg/kg (obese female Zucker rats; [6]) [%]	change in vivo at 100 mg/kg (obese female Zucker rats; [7]) [%]	change in vivo at 100 mg/kg (obese female Zucker rats; [8]) [%]	HDL-C/non-HDL-C (obese female Zucker rats)	also measured
	CC(C)(CCCCC(O)CCCCC(C)(C)C(=O)O)C(=O)O [A]	3.4	12	-2	231	-11	14	-59	50	43	-41	5	
	CC(C)(CCCCCC(O)CCCCCC(C)(C)C(=O)O)C(=O)O [C]	1	3	-11	171	-42	105	-90	169	-57	-80	40	
72 to 74	CC(C)(CO)CCCCC(O)CCCCC(C)(C)CO [Compound 6.1, 2,2,12,12-Tetramethyltridecane-1,7,13-triol]												
72 to 74	CC(C)(CO)CCCCC(CCCCC(C)(C)CO)C(C)(C)O [Compound 6.12, 7-(1-Hydroxy-1-methylethyl)-2,2,12,12-tetramethyltridecane-1,13-diol]												
71 to 75	CC(C)(CO)CCCCCC(O)CCCCCC(C)(C)CO [Compound 6.17, 2,2,14,14-Tetramethylpentadecane-1,8,15-triol]												
79 to 80	CC(C)(CO)CCCCCC(O)CCCCC(C)(C)CO (stereo not shown) [Compound 6.27, 2,2,13,13-Tetramethyltetradecane-1,7,14-triol]												
75 to 77	CC(C)(CO)CCCCCCC(O)CCCCCCC(C)(C)CO [Compound 6.32, 2,2,16,16-Tetramethylheptadecane-1,9,17-triol]												
65 to 67	CC(C)(CCCCCC(O)CCCCCC(C)(C)CC(=O)c1cccnc1)COC(=O)c1cccnc1 (stereo not shown) [Compound 6.37, Nicotinic acid 8-hydroxy-2,2,14,14-tetramethyl-15-nicotinoylpentadecyl ester]												
98 to 99	CC(C)(CO)Cc1cccc(C(O)c2cccc(CC(C)(C)CO)c2)c1 [Compound 6.46, 3-(3-{Hydroxy-[3-(3-hydroxy-2,2-dimethylpropyl)-phenyl]-methyl}-phenyl)-2,2-dimethylpropan-1-ol]												
	CC(C)(CO)CCCCCC(O)CCCCCC(C)(C)CO [Compound B]	5.1	1	-3	199	-28	105	-87	237	-52	-81	35	Bile Acids (female Syrian hamsters): 67,108 ± 17,529 ng/ml; Body wt. (female Syrian hamsters): 146 ± 2 gm; Glucose (female Syrian hamsters): 122 ± 3; Insulin (female Syrian hamsters): 2.4 ± 0.7; HDL-C (female Syrian hamsters; serum): 63 ± 4 mg/dL; LDL-C (female Syrian hamsters; serum): 44 ± 4 mg/dL; TG (female Syrian hamsters; serum): 128 ± 37 mg/dL; VLDL-C (female Syrian hamsters; serum): 4 ± 2 mg/dL
	CC(C)(CO)CCCCC(O)CCCCC(C)(C)C(=O)O (stereo not shown) [Compound I]	2.3											
	CC(C)(CO)CCCCCC(O)CCCCC(C)(C)CO (stereo not shown) [D]	1.6											
	CC(C)(CCCCC(O)CCCC(C)(C)C(=O)O)C(=O)O (stereo not shown) [E]	8.3											
	CC(C)(CO)CCCCC(O)CCCCC(C)(C)CO [F]	6.4	3	10		-43	53	-46	222	-4	-15	2	
	CC(C)(CO)CCCCCCC(O)CCCCCCC(C)(C)CO [G]	7.8	9	14	163	-62	21	-80	68	-38	-68	12	
	CC(C)(CO)CCCCCCCC(O)CCCCCCCC(C)(C)CO [H]	2.6	9	19	97	-30	61	-36	115	-30	-5	3	
	CC(C)(CO)CCCCC(CO)CCCCC(C)(C)CO [J]	17	12	21	183	-32	-6	-23	-2	-11	-12	2	
	CC(C)(CCCCC(CO)CCCCC(C)(C)C(=O)O)C(=O)O [K]	14	10	3	253	-32	35	-45	62	41	-38	9	
	CCCCC(O)CCCCCC(C)(C)C(=O)O (stereo not shown) [L]		12	13	88	-27	-3	-37	-2	-37	-11	4	
